Test results from patent publication US20260159486A1, “BENZO[H]QUINAZOLINE-4-AMINE DERIVATIVES FOR THE TREATMENT OF CANCER” (Redona Therapeutics, Inc., priority 2021, published 2026).

Key:
[1] = system: MDA-MB-231 cells; assay: MDA-MB-231 proliferation assay; assay type: cell-based; conditions: Homo sapiens, MDA-MB-231, 72 h, YO-PRO-1 Iodide readout
Procedure, shortened: (§1)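 Cells seeded at 750 per well, treated next day for 72 h at 37 °C with 0.5% final DMSO. Cell number read by YO-PRO-1 fluorescence after lysis, normalized to DMSO (100%) and time-zero cells (0%). GI50 from 4-parameter logistic fit, maximum constrained to 100%.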

[2] = system: CAL-51 cells; assay: CAL-51 proliferation assay; assay type: cell-based; conditions: Homo sapiens, CAL-51, 72 h, YO-PRO-1 Iodide readout
Procedure, shortened: as §1

[3] = molecular target: T1, recombinant human CLK3 (Homo sapiens, UniProt P49761); assay: CLK3 kinase assay (LANCE Ultra); assay type: biochemical; conditions: CLK3 0.5 nM, ATP 300 μM, 3 hours at 30° C.
T1 construct: purchased Thermo Fisher Scientific PV3826
T1 sequence (P49761 whole entry): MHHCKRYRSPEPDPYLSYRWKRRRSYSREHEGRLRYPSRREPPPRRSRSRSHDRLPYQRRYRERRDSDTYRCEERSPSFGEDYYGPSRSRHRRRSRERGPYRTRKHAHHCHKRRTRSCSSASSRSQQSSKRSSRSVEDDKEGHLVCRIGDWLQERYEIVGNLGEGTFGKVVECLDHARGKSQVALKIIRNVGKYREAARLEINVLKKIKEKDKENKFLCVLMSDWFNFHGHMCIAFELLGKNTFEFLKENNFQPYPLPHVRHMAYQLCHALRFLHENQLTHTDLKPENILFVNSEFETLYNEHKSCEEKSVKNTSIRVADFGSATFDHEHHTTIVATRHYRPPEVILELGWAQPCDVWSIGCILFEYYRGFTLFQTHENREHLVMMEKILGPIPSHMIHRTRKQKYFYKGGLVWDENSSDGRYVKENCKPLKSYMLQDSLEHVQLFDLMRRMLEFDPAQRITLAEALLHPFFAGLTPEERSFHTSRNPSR
Procedure, shortened: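 Recombinant human CLK3 (0.5 nM) with ULight-CREBtide (50 nM) and 300 μM ATP, 3 h at 30 °C in kinase buffer; EDTA stop, then Eu-anti-phospho-CREB antibody (2 nM, 1 h RT), TR-FRET read at 665/620 nm. Inhibition normalized to DMSO and no-ATP wells; IC50 from 4-parameter fit, ten 1:3 concentrations in duplicate.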

Structure (SMILES)	GI50 [1]	GI50 [2]	IC50 [3]
CC1(C)Cc2c(ccc(O[C@H]3CC[C@H](N)CC3)c2N(CCO)CCO)-c2ncnc(N)c21 [Example 11, 2-[[4-amino-8-(trans-4-aminocyclohexoxy)-5,5-dimethyl-6H-benzo[h]quinazolin-7-yl]-(2-hydroxyethyl)amino]ethanol]	> 2000 nM	100 to 2000 nM	< 30 nM
CC1(C)Cc2c(ccc(O[C@H]3CC[C@H](N)CC3)c2N2CCC(C#N)C2)-c2ncnc(N)c21 (single isomer, unassigned) [Example 49, 1-[4-amino-8-(trans-4-aminocyclohexoxy)-5,5-dimethyl-6H-benzo[h]quinazolin-7-yl]pyrrolidine-3-carbonitrile]	< 100 nM	< 100 nM	< 30 nM
COc1ccc2c(c1N1CC(O)C1)CC(C)(C)c1c(N)ncnc1-2 [Example 25, 1-(4-amino-8-methoxy-5,5-dimethyl-6H-benzo[h]quinazolin-7-yl)azetidin-3-ol]	100 to 2000 nM	100 to 2000 nM	101 to 1000 nM
CN[C@H]1CC[C@H](Oc2ccc3c(c2N(C)CCC#N)CC(C)(C)c2c(N)ncnc2-3)CC1 [Example 99, 3-[[4-amino-5,5-dimethyl-8-[trans-4-(methylamino)cyclohexoxy]-6H-benzo[h]quinazolin-7-yl]-methyl-amino]propanenitrile]	< 100 nM	< 100 nM	< 30 nM
CC(CCC#N)c1c(O[C@H]2CC[C@H](N)CC2)ccc2c1CC(C)(C)c1c(N)ncnc1-2 (stereo partly drawn) [Example 97, 4-[4-amino-8-(trans-4-aminocyclohexoxy)-5,5-dimethyl-6H-benzo[h]quinazolin-7-yl]pentanenitrile]	< 100 nM	< 100 nM	< 30 nM
CC1(C)Cc2c(ccc(O[C@H]3CC[C@H](N)CC3)c2N(CCC#N)C2CC2)-c2ncnc(N)c21 [Example 51, 3-[[4-amino-8-(trans-4-aminocyclohexoxy)-5,5-dimethyl-6H-benzo[h]quinazolin-7-yl]-cyclopropyl-amino]propanenitrile]	< 100 nM	< 100 nM	< 30 nM
CC1(C)Cc2c(ccc(O[C@H]3CC[C@H](N)CC3)c2NS(=O)(=O)CCO)-c2ncnc(N)c21 [Example 42, N-[4-amino-8-(trans-4-aminocyclohexoxy)-5,5-dimethyl-6H-benzo[h]quinazolin-7-yl]-2-hydroxy-ethanesulfonamide]	> 2000 nM	> 2000 nM	30 to 100 nM
CN(CCC#N)c1c(N2CCNCC2)ccc2c1CC(C)(C)c1c(N)ncnc1-2 [Example 125, 3-[(4-amino-5,5-dimethyl-8-piperazin-1-yl-6H-benzo[h]quinazolin-7-yl)-methyl-amino]propanenitrile]	< 100 nM	< 100 nM	< 30 nM
CN(Cc1ccncc1)c1c(O[C@H]2CC[C@H](N)CC2)ccc2c1CC(C)(C)c1c(N)ncnc1-2 [Example 101, 8-(trans-4-aminocyclohexoxy)-N7,5,5-trimethyl-N7-(4-pyridylmethyl)-6H-benzo[h]quinazoline-4,7-diamine]	100 to 2000 nM	100 to 2000 nM	101 to 1000 nM
CN(CCC(C)(C)O)c1c(O[C@H]2CC[C@H](N)CC2)ccc2c1CC(C)(C)c1c(N)ncnc1-2 [Example 111, 4-[[4-amino-8-(trans-4-aminocyclohexoxy)-5,5-dimethyl-6H-benzo[h]quinazolin-7-yl]-methyl-amino]-2-methyl-butan-2-ol]	100 to 2000 nM	100 to 2000 nM	101 to 1000 nM
CNC(=O)CN(C)c1c(O[C@H]2CC[C@@H](N)CC2)ccc2c1CC(C)(C)c1c(N)ncnc1-2 [Example 26, 2-[[4-amino-8-(cis-4-aminocyclohexoxy)-5,5-dimethyl-6H-benzo[h]quinazolin-7-yl]-methyl-amino]-N-methyl-acetamide]	> 2000 nM	> 2000 nM	101 to 1000 nM
CC1(C)Cc2c(ccc(O[C@H]3CC[C@H](N)CC3)c2NCC#N)-c2ncnc(N)c21 [Example 35, 2-[[4-amino-8-(trans-4-aminocyclohexoxy)-5,5-dimethyl-6H-benzo[h]quinazolin-7-yl]amino]acetonitrile]	100 to 2000 nM	100 to 2000 nM	30 to 100 nM
COc1ccc2c(c1C)CC(C)(C)c1c(N)ncnc1-2 [Example 1, 8-methoxy-5,5,7-trimethyl-6H-benzo[h]quinazolin-4-amine]	> 2000 nM	100 to 2000 nM	< 30 nM
CC1(C)Cc2c(ccc(O[C@H]3CC[C@H](N)CC3)c2N)-c2ncnc(N)c21 [Example 5, 8-(trans-4-aminocyclohexoxy)-5,5-dimethyl-6H-benzo[h]quinazoline-4,7-diamine]	100 to 2000 nM	100 to 2000 nM	< 30 nM
CC(CCO)c1c(O[C@H]2CC[C@H](N)CC2)ccc2c1CC(C)(C)c1c(N)ncnc1-2 (stereo partly drawn) [Example 92, 3-[4-amino-8-(trans-4-aminocyclohexoxy)-5,5-dimethyl-6H-benzo[h]quinazolin-7-yl]butan-1-ol]	< 100 nM	< 100 nM	< 30 nM
CC1(C)Cc2c(ccc(O[C@H]3CC[C@H](N)CC3)c2N2CCCCC2)-c2ncnc(N)c21 [Example 9, 8-(trans-4-aminocyclohexoxy)-5,5-dimethyl-7-(1-piperidyl)-6H-benzo[h]quinazolin-4-amine]	100 to 2000 nM	< 100 nM	< 30 nM
CC1(C)Cc2c(ccc(Br)c2N(CCC#N)C[C@@H]2CNC(=O)O2)-c2ncnc(N)c21 [Example 132, 3-[(4-amino-8-bromo-5,5-dimethyl-6H-benzo[h]quinazolin-7-yl)-[[(5S)-2-oxooxazolidin-5-yl]methyl]amino]propanenitrile]	100 to 2000 nM	100 to 2000 nM	< 30 nM
CN1CCOc2ccc3c(c21)CC(C)(C)c1c(N)ncnc1-3 [Example 4, 4,6,6-trimethyl-3,5-dihydro-2H-quinazolino[7,8-f][1,4]benzoxazin-7-amine]	100 to 2000 nM	100 to 2000 nM	30 to 100 nM
Nc1ncnc2c1C1(CCCC1)Cc1c-2ccc(O[C@H]2CC[C@H](N)CC2)c1NCCO [Example 60, 2-[[4-amino-8-(4-trans-aminocyclohexoxy)spiro[6H-benzo[h]quinazoline-5,1′-cyclopentane]-7-yl]amino]ethanol]	100 to 2000 nM	100 to 2000 nM	30 to 100 nM
CC1(C)Cc2c(ccc(O[C@H]3CC[C@H](N)CC3)c2N2CC=CC2=O)-c2ncnc(N)c21 [Example 56, 1-[4-amino-8-(trans-4-aminocyclohexoxy)-5,5-dimethyl-6H-benzo[h]quinazolin-7-yl]-2H-pyrrol-5-one]	> 2000 nM	> 2000 nM	101 to 1000 nM
CCCN(CCO)c1c(O[C@H]2CC[C@@H](N)CC2)ccc2c1CC(C)(C)c1c(N)ncnc1-2 [Example 23, 2-[[4-amino-8-(cis-4-aminocyclohexoxy)-5,5-dimethyl-6H-benzo[h]quinazolin-7-yl]-propyl-amino]ethanol]	100 to 2000 nM	100 to 2000 nM	< 30 nM
CC(=O)NCCN(C)c1c(O[C@H]2CC[C@H](N)CC2)ccc2c1CC(C)(C)c1c(N)ncnc1-2 [Example 38, N-[2-[[4-amino-8-(trans-4-aminocyclohexoxy)-5,5-dimethyl-6H-benzo[h]quinazolin-7-yl]-methyl-amino]ethyl]acetamide]	> 2000 nM	100 to 2000 nM	30 to 100 nM
COc1ccc2c(c1NCC[C@@H]1CNC(=O)O1)CC(C)(C)c1c(N)ncnc1-2 [Example 89, (5R)-5-[2-[(4-amino-8-methoxy-5,5-dimethyl-6H-benzo[h]quinazolin-7-yl)amino]ethyl]oxazolidin-2-one]	100 to 2000 nM	100 to 2000 nM	101 to 1000 nM
COCCCc1c(OC)ccc2c1CC(C)(C)c1c(N)ncnc1-2 [Example 61, 8-methoxy-7-(3-methoxypropyl)-5,5-dimethyl-6H-benzo[h]quinazolin-4-amine]	100 to 2000 nM	100 to 2000 nM	101 to 1000 nM
CCN(C)c1c(O[C@H]2CC[C@H](N)CC2)ccc2c1CC(C)(C)c1c(N)ncnc1-2 [Example 67, 8-(trans-4-aminocyclohexoxy)-N7-ethyl-N7,5,5-trimethyl-6H-benzo[h]quinazoline-4,7-diamine]	< 100 nM	< 100 nM	< 30 nM
CC1(C)Cc2c(ccc(O[C@H]3CC[C@H](N)CC3)c2NC[C@@H]2CNC(=O)O2)-c2ncnc(N)c21 [Example 129, (5R)-5-[[[4-amino-8-(trans-4-aminocyclohexoxy)-5,5-dimethyl-6H-benzo[h]quinazolin-7-yl]amino]methyl]oxazolidin-2-one]	> 2000 nM	> 2000 nM	< 30 nM
CN(CCO)c1c(O[C@H]2CC[C@@H](N)CC2)ccc2c1CC(C)(C)c1c(N)ncnc1-2 [Example 24, 2-[[4-amino-8-(cis-4-aminocyclohexoxy)-5,5-dimethyl-6H-benzo[h]quinazolin-7-yl]-methyl-amino]ethanol]	< 100 nM	< 100 nM	< 30 nM
C/C(=C\CO)c1c(O[C@H]2CC[C@H](N)CC2)ccc2c1CC(C)(C)c1c(N)ncnc1-2 [Example 98, (E)-3-[4-amino-8-(trans-4-aminocyclohexoxy)-5,5-dimethyl-6H-benzo[h]quinazolin-7-yl]but-2-en-1-ol]	100 to 2000 nM	< 100 nM	< 30 nM
